A word on the inhibition: it is the change of the read-out against control, counted positive when it falls. Broadly, the ED50 is the midpoint of the dose-response relation. Read a low ED50 as an effect at a small dose. Usually LD50 stands for the dose at which mortality reaches 50%. Low values mean a more toxic substance, high ones a less toxic substance. Usually share remaining stands for what is left of the initial amount, in per cent.

The target in data set [1] is T1, (H^+ +K^+) ATPase (Sus scrofa, UniProt P19156).
T1 construct: prepared from fresh pieces of the fundus ventriculi of hog stomach; from tissue; host or cells: hog stomach, fundus ventriculi (fresh pieces), prepared by the method of Saccomani et al., J. Biol. Chem. 1976
Briefly: Inhibitory effect on (H^+ +K^+) ATPase. As to conditions: at 1 × 10^-3 M; in vitro; read-out: Degree of inhibition, Inhibitory effect on (H^+ + K^+) ATPase. It is filed as biochemical, hog. Here is the method:
The inhibitory effect of the present compounds [I] on (H^+ +K^+) ATPase was tested by adding each test compound to a solution containing 300-500 μg, on a protein basis, of the enzyme, incubating this reaction mixture at 35°-37° C. for 5-30 minutes, and then determining the residual activity of (H^+ +K^+) ATPase present in the reaction mixture. The test compounds were dissolved in methanol or ethanol in advance and added to the reaction system in such an amount as to give a concentration of 1×10^-3 M. The (H^+ +K^+) ATPase used in this test was prepared from fresh pieces of the fundus ventriculi of hog stomach according to the method of Saccomani et al. (The Journal of Biological Chemistry, Vol. 251, No. 23, p. 7690, 1976). The residual activity of (H^+ +K^+) ATPase was determined by mixing magnesium chloride and potassium chloride with the incubated reaction mixture, adding adenosine triphosphate thereto, incubating this assay mixture 37° C. for 5-15 minutes to effect an enzymic reaction, and colorimetrically determining the liberated inorganic phosphate by use of an ammonium molybdate reagent. The initial concentrations of magnesium chloride, potassium chloride and adenosine triphosphate were adjusted to 2 mM, 20 mM and 2 mM, respectively. Colorimetric determinations were made at a wavelength of 360-400 nm. As a control experiment, the residual activity of (H^+ +K^+) ATPase was determined by repeating the above-described procedure without adding any test compound to the reaction system. In this table, the inhibitory effect is indicated by the degree of inhibition which was obtained by calculating the difference between the measured value obtained in the control experiment and the measured value resulting from the addition of each test compound and expressing this difference as a percentage of the measured value obtained in the control experiment. For purposes of comparison, the inhibitory effect of Omeprazole and Compounds α and β on (H^+ +K^+) ATPase was tested in the same manner as described above and the results thus obtained are also shown in Table 2.

Data set [2] has as its system gastric acid secretion. Briefly: Inhibitory effect on gastric acid secretion (pylorus ligation). It is filed as in vivo, male Wistar rats. As to conditions: Rattus norvegicus, po, rats; total acidity of gastric juice 4 hours after pylorus ligation. Here is the method: The inhibitory effect of the present compounds [I] on gastric acid secretion was tested by using male Wistar rats, weighing about 200 g, in groups of five. To these rats which had been fasted overnight, the test compounds were orally administered in a series of appropriately selected doses ranging from 1 to 100 mg/kg. Then, the pyloric end of the stomach was ligated. After the lapse of 4 hours, the total acidity of gastric juice of each rat was measured. More specifically, the test compounds were suspended in a 0.5% aqueous solution of carboxymethyl cellulose and administered to the rats 30 minutes before ligation. Gastric juice was collected by sacrificing and laparotomizing each rat. The total acidity of gastric juice was determined by titrating the gastric juice with a 0.1 N aqueous solution of sodium hydroxide until a pH of 7.0 was reached. As a control experiment, the total acidity of gastric juice of an untreated group was determined in the same manner as described above. The inhibitory effect of the test compounds on gastric acid secretion was evaluated on the basis of the dose (in mg/kg) required to inhibit gastric acid secretion, i.e. the total acidity of gastric juice, by 50% (hereinafter referred to as ED50). The ED50 value of each test compound was determined by calculating the difference in total acidity between the untreated group and each treated group, dividing the difference by the total acidity of the untreated group to obtain the degree of inhibition, and constructing a dose-response curve on the basis of the data thus obtained. For purposes of comparison, the ED50 values of Omeprazole and Compounds α and β were determined in the same manner as described above and are also shown in Table 3.

Data set [3] in a line: Acute toxicity test (LD50). As to conditions: rat, in vivo, rats. Here is the method:
The acute toxicity (LD50) of several typical examples of the present compounds [I] (i.e., the compounds of Examples 1, 8, 13, 19, 24, 26 and 33) was tested with 5-weeks-old male Wistar rats. […] When Omeprazole was administered orally, its LD50 value was greater than 4000 mg/kg.

Data set [4] in a line: physchem. It is filed as physicochemical. As to conditions: solid, 75% rh. The protocol: The storage stability of the present compounds [I] was tested by allowing each test compound to stand under severe conditions (i.e., a temperature of 60° C. and a relative humidity of 75%) for 8 days and then determining its percentage of residue according to a thin-layer densitometric method (Bunseki Kagaku, Vol. 23, No. 9, p. 1016, 1974). More specifically, upon completion of the severe treatment, 100 μg of each test compound was applied to a thin-layer plate and this plate was developed with a chloroform-ethanol mixture (volume ratio 10:1). The thin-layer plate used for this purpose was a TLC Plate Aluminum Oxide 60F254 (manufactured by Merck Co.; 0.25 mm in thickness and 20 cm×20 cm in size), and it was developed over a distance of 15 cm. Then, using a Shimazu Two-wavelength Chromatoscanner CS-910 (manufactured by Shimazu Seisakusho), the resulting spot was analyzed at a wavelength of 300-315 nm.
For purposes of comparison, the percentages of residue of Omeprazole (at a measuring wavelength of 300 nm) and Compounds α and β (at a measuring wavelength of 310 nm) were determined in the same manner as described above and are also shown in Table 1.

T1 sequence (P19156 2-1034 limits assumed): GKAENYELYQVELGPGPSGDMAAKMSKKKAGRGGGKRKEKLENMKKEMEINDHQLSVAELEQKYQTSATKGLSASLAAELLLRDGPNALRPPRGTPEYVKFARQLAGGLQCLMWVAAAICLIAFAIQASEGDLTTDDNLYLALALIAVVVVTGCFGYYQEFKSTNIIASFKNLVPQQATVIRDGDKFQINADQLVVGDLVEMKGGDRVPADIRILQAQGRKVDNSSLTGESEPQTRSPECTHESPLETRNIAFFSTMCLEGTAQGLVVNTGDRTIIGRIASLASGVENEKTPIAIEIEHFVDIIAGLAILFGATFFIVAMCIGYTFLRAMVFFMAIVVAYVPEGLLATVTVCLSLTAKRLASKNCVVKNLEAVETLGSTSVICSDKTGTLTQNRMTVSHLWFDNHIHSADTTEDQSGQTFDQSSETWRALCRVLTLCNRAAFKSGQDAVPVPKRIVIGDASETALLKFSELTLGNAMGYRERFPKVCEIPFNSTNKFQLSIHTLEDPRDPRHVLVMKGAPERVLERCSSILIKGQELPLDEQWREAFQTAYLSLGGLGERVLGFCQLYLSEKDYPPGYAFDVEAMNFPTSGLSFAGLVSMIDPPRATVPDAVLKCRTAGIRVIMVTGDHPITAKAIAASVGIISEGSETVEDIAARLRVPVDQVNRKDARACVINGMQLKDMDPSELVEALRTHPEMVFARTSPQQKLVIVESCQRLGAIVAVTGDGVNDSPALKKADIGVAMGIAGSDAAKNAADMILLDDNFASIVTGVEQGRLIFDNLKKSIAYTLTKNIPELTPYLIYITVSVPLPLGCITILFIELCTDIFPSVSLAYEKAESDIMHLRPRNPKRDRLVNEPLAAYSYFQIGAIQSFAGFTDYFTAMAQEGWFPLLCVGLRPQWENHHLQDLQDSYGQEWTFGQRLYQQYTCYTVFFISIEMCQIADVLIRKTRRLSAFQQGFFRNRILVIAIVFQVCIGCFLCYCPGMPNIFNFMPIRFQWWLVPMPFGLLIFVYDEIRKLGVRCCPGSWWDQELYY
T1 sequence (P18434 whole entry partner): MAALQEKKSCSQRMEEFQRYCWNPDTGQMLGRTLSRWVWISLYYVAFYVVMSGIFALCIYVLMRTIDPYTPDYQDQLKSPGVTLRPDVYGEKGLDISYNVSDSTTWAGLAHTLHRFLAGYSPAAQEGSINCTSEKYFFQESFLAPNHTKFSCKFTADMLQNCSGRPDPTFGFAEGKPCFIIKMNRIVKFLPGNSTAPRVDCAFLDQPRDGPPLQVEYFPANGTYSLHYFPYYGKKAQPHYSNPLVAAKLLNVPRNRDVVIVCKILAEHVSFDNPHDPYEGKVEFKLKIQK

As to `Cc1cnc(C[S+]([O-])c2nc3nc(OCC(C)C)ccc3[nH]2)c(C)c1` (centres unmarked) [Example 19, 2-[2-(3,5-Dimethyl)pyridylmethylsulfinyl]-5-isobutyloxyimidazo[4,5-b]pyridine], in data set [1], the inhibition at 1000 µM came to 100%. Besides, the ED50 in data set [2] worked out at 11 mg/kg. The LD50 in data set [3] (ip, intraperitoneal administration) is more than 500 mg/kg; in data set [3] (oral administration), more than 4000 mg/kg. The molecule also had an amount remaining at 192 h in data set [4] of 78%.

Source of the values: patent US4808596A, “Imidazo[4,5-b]pyridine compounds and pharmaceutical compositions containing same” (Tokyo Tanabe Company, Ltd., priority 1986, dated 1989).
